# Test results: patent publication US20200199692A1, “LACTIC BACTERIA AND THE USE THEREOF FOR THE PREVENTIVE, INHIBITORY AND/OR REDUCTIVE TREATMENT OF THE FORMATION OF BACTERIAL BIOFILMS” (PROBIOTICAL S.P.A., priority 2016, published 2020)
# Read-outs that look alike come from different tables or passages of the source.
# Experiments:
# [1] = test system: Lactobacillus plantarum LMC-1 ID 1952 DSM 32252; experiment: Antibiotic resistance profile (E-test, ABBiodisk); assay type: cell-based
# Commercial Lactobacillus = experiment: Antibiotic resistance profile (E-test, ABBiodisk); assay type: cell-based
# [2] = test system: Commercial Bifidobacterium; experiment: Antibiotic resistance profile (E-test, ABBiodisk); assay type: cell-based
# [3] = test system: Lactobacillus paracasei LMC-4 ID 1953 DSM 32254; experiment: Antibiotic resistance profile (E-test, ABBiodisk); assay type: cell-based
# [4] = test system: Lactobacillus paracasei LMC-8 ID 1954 DSM 32258; experiment: Antibiotic resistance profile (E-test, ABBiodisk); assay type: cell-based
# Lactobacillus plantarum = conditions: Table 4 (L. plantarum); Linezolid from EFSA 2005, Quinupristin/Dalfopristin from EFSA 2008; cited from earlier work
# Lactobacillus paracasei = conditions: Tables 8 and 12 (L. paracasei); Linezolid from EFSA 2005, Quinupristin/Dalfopristin from EFSA 2008; cited from earlier work
# [5] = Lactiplantibacillus plantarum, DSM32252, Etest strips in agar, strain Lactobacillus plantarum LMC-1 ID 1952 DSM 32252, read-out: MIC
# [6] = Etest strips in agar, Commercial Lactobacillus reference strain, read-out: MIC
# [7] = Etest strips in agar, Commercial Bifidobacterium reference strain, read-out: MIC
# [8] = Lacticaseibacillus paracasei, DSM32254, Etest strips in agar, strain Lactobacillus paracasei LMC-4 ID 1953 DSM 32254, read-out: MIC
# [9] = Lacticaseibacillus paracasei, DSM32258, Etest strips in agar, strain Lactobacillus paracasei LMC-8 ID 1954 DSM 32258, read-out: MIC
# [10] = Lacticaseibacillus paracasei, DSM32254
# [11] = Lacticaseibacillus paracasei, DSM32258
# [12] = Etest strips in agar, strain Lactobacillus plantarum LMC-1 ID 1952 DSM 32252
# [13] = Etest strips in agar, Commercial Lactobacillus reference strain
# [14] = Etest strips in agar, Commercial Bifidobacterium reference strain
# [15] = Etest strips in agar, strain Lactobacillus paracasei LMC-4 ID 1953 DSM 32254
# [16] = Etest strips in agar, strain Lactobacillus paracasei LMC-8 ID 1954 DSM 32258
Compound,"MIC [1, 5]",MIC (Commercial Lactobacillus; [6]),"MIC [2, 7]","MIC [3, 8]","MIC [4, 9]",EFSA Limit 2012 (Lactobacillus plantarum),EFSA Limit 2012 (Lactobacillus paracasei),other results
CC1(C)S[C@@H]2[C@H](NC(=O)[C@H](N)c3ccc(O)cc3)C(=O)N2[C@H]1C(=O)O [Amoxicillin],0.19 µg/mL,0.5 µg/mL,0.064 µg/mL,0.25 µg/mL,0.5 µg/mL,,,
CO/N=C(\C(=O)N[C@@H]1C(=O)N2C(C(=O)O)=C(COC(N)=O)CS[C@H]12)c1ccco1 [Cefuroxime],0.064 µg/mL,1.5 µg/mL,0.25 µg/mL,0.75 µg/mL,1 µg/mL,,,
O=C(O)c1cn(C2CC2)c2cc(N3CCNCC3)c(F)cc2c1=O [Ciprofloxacin],> 32 µg/mL,1 µg/mL,4 µg/mL,0.75 µg/mL,1 µg/mL,,,
NC[C@H]1O[C@H](O[C@H]2[C@H](O)[C@@H](O[C@H]3O[C@H](CO)[C@@H](O)[C@H](N)[C@H]3O)[C@H](N)C[C@@H]2N)[C@H](O)[C@@H](O)[C@@H]1O [Kanamycin],64 µg/mL,128 µg/mL,,24 µg/mL,64 µg/mL,,,
CO[C@H]1/C=C/O[C@@]2(C)Oc3c(C)c(O)c4c(O)c(c(/C=N/N5CCN(C)CC5)c(O)c4c3C2=O)NC(=O)/C(C)=C\C=C\[C@H](C)[C@H](O)[C@@H](C)[C@@H](O)[C@@H](C)[C@H](OC(C)=O)[C@@H]1C [Rifampicin],0.25 µg/mL,0.094 µg/mL,0.094 µg/mL,0.016 µg/mL,0.032 µg/mL,,,
CC1(C)S[C@@H]2[C@H](NC(=O)[C@H](N)c3ccccc3)C(=O)N2[C@H]1C(=O)O [Ampicillin],0.032 µg/mL,0.5 µg/mL,0.016 µg/mL,0.094 µg/mL,0.38 µg/mL,2 µg/mL,4 µg/mL,
CCC[C@@H]1C[C@@H](C(=O)N[C@@H]([C@H]2O[C@H](SC)[C@H](O)[C@@H](O)[C@H]2O)[C@H](C)Cl)N(C)C1 [Clindamycin],2 µg/mL,0.5 µg/mL,0.047 µg/mL,0.064 µg/mL,0.094 µg/mL,,,
CN[C@H](CC(C)C)C(=O)N[C@H]1C(=O)N[C@@H](CC(N)=O)C(=O)N[C@H]2C(=O)N[C@H]3C(=O)N[C@H](C(=O)N[C@H](C(=O)O)c4cc(O)cc(O)c4-c4cc3ccc4O)[C@H](O)c3ccc(c(Cl)c3)Oc3cc2cc(c3O[C@@H]2O[C@H](CO)[C@@H](O)[C@H](O)[C@H]2O[C@H]2C[C@](C)(N)[C@H](O)[C@H](C)O2)Oc2ccc(cc2Cl)[C@H]1O [Vancomycin],,,,,,,,"MIC ([1]; Lactiplantibacillus plantarum, DSM32252): > 256 µg/mL; MIC (Commercial Lactobacillus; Lactobacillus): > 256 µg/mL; MIC ([2]; Bifidobacterium): 0.38 µg/mL; MIC [3, 10]: > 256 µg/mL; MIC [4, 11]: > 256 µg/mL"
O=C(N[C@H](CO)[C@H](O)c1ccc([N+](=O)[O-])cc1)C(Cl)Cl [Cloramphenicol],,,,,,8 µg/mL,4 µg/mL,"MIC [1, 12]: 2 µg/mL; MIC (Commercial Lactobacillus; [13]): 3 µg/mL; MIC [2, 14]: 0.75 µg/mL; MIC [3, 15]: 1.5 µg/mL; MIC [4, 16]: 2.0 µg/mL"
CC[C@H]1OC(=O)[C@H](C)[C@@H](O[C@H]2C[C@@](C)(OC)[C@@H](O)[C@H](C)O2)[C@H](C)[C@@H](O[C@@H]2O[C@H](C)C[C@H](N(C)C)[C@H]2O)[C@](C)(OC)C[C@@H](C)C(=O)[C@H](C)[C@@H](O)[C@]1(C)O [Clarithromycin],0.25 µg/mL,0.047 µg/mL,0.032 µg/mL,0.047 µg/mL,0.094 µg/mL,,,
Gentamicin,,,,,,16 µg/mL,32 µg/mL,"MIC [1, 12]: 4 µg/mL; MIC (Commercial Lactobacillus; [13]): 6 µg/mL; MIC [2, 14]: 48 µg/mL; MIC [3, 15]: 2 µg/mL; MIC [4, 16]: 4 µg/mL"
CO[C@@]1(NC(=O)Cc2cccs2)C(=O)N2C(C(=O)O)=C(COC(N)=O)CS[C@@H]21 [Cefoxitin],64 µg/mL,> 256 µg/mL,1 µg/mL,> 256 µg/mL,> 256 µg/mL,,,
[H]/N=C(/N)N[C@H]1[C@H](O)[C@@H](O)[C@H](O[C@@H]2O[C@@H](C)[C@](O)(C=O)[C@H]2O[C@@H]2O[C@@H](CO)[C@H](O)[C@@H](O)[C@@H]2NC)[C@@H](N/C(N)=N\[H])[C@@H]1O [Streptomycin],16 µg/mL,12 µg/mL,64 µg/mL,12 µg/mL,24 µg/mL,,64 µg/mL,
CC[C@H]1OC(=O)[C@H](C)[C@@H](O[C@H]2C[C@@](C)(OC)[C@@H](O)[C@H](C)O2)[C@H](C)[C@@H](O[C@@H]2O[C@H](C)C[C@H](N(C)C)[C@H]2O)[C@](C)(O)C[C@@H](C)C(=O)[C@H](C)[C@@H](O)[C@]1(C)O [Erythromycin],0.75 µg/mL,0.032 µg/mL,0.094 µg/mL,,,1 µg/mL,1 µg/mL,"MIC [3, 10]: 0.125 µg/mL; MIC [4, 11]: 0.125 µg/mL"
CN(C)[C@@H]1C(O)=C(C(N)=O)C(=O)[C@@]2(O)C(O)=C3C(=O)c4c(O)cccc4[C@@](C)(O)[C@H]3C[C@@H]12 [Tetracycline],12 µg/mL,0.5 µg/mL,8 µg/mL,0.19 µg/mL,0.38 µg/mL,,,
CC(=O)NC[C@H]1CN(c2ccc(N3CCOCC3)c(F)c2)C(=O)O1 [Linezolid],1.5 µg/mL,2 µg/mL,0.38 µg/mL,0.38 µg/mL,1.5 µg/mL,4 µg/mL,4 µg/mL,
C[C@@H](O)[C@H]1C(=O)N2C(C(=O)O)=C(SCCN=CN)C[C@H]12 [Imipenem],0.047 µg/mL,2 µg/mL,0.25 µg/mL,1.5 µg/mL,0.75 µg/mL,,,
CC[C@H]1OC(=O)[C@H](C)[C@@H](O[C@H]2C[C@@](C)(OC)[C@@H](O)[C@H](C)O2)[C@H](C)[C@@H](O[C@@H]2O[C@H](C)C[C@H](N(C)C)[C@H]2O)[C@](C)(O)C[C@@H](C)CN(C)[C@H](C)[C@@H](O)[C@]1(C)O [Azithromycin],2 µg/mL,0.38 µg/mL,0.75 µg/mL,0.5 µg/mL,0.75 µg/mL,,,
Quinupristin/Dalfopristin,,,,,,4 µg/mL,4 µg/mL,"MIC [1, 12]: 0.38 µg/mL; MIC (Commercial Lactobacillus; [13]): 1 µg/mL; MIC [2, 14]: 0.25 µg/mL; MIC [3, 15]: 0.094 µg/mL; MIC [4, 16]: 0.25 µg/mL"
